How the values were obtained:
Assay type in all cases: cell-based
[1] = system: human dermal microvascular endothelial cells (HMEC-1); conditions: HMEC-1, truncated peptides compared to SSTN82-130, FIG. 14
Experimental: FIGS. 6A-6H—Inhibition of B82L fibroblast and HMEC-1 cell attachment and spreading on VN by synstatin82-130. B82L fibroblasts, which rely on the αvβ5 integrin for attachment to VN, and human dermal microvascular endothelial cells, which rely on both the αvβ3 and αvβ5 integrins for attachment to VN, were plated in the absence of peptide (FIGS. 6A, 6E) or in the presence of 0.1 (FIGS. 6B, 6F), 0.3 (FIGS. 6C, 6G) or 1 μM (FIGS. 6D, 6H) synstatin82-130 for 2 hr and processed as described in FIG. 2.
FIGS. 10A-10D—Dependence of HMEC cell attachment and spreading on integrin activation by Sdc1 and its inhibition by SSTN. (FIG. 10A) HMECs were plated for 2 hr either on Sdc1-specific antibody B-B4 to engage Sdc1 or on VN (10 μg/ml coating concentration) to engage the αvβ3 and αvβ5 integrins. Blocking antibodies LM609 (10 μg/ml, specific for αvβ3) and P1F6 (10 μg/ml, specific for αvβ5), SSTN (0.5 μM) or recombinant mouse Sdc1 ectodomain (mS1ED, 5 μM) were added. The ligand mimetic antibody WOW1 was used to detect activated αvβ3 integrin on cells plated on B-B4. (FIG. 10B) HMECs were treated with siRNA oligo specific for human Sdc1 for 48 hr prior to plating on VN. Sdc1 expression was quantified by flow cytometry using human Sdc1-specific mAb B-B4 or a control mouse IgG. (FIG. 10C-10D) The percentage of cell attaching or attaching and spreading was quantified for HMECs, HAEC and MAECs plated on VN for 24 hr in the presence of mS1ED or SSTN, or after siRNA silencing of Sdc1 expression in the presence of mAb LM609 to block αvβ3 integrin, P1F6 to block αvβ5 integrin, or both antibodies.
FIG. 14—Activity of SSTN peptides. A diagram of SSTN82-130 used in our experiments is shown. The gray letters designate amino acids that are identical or highly conserved across species (mouse, human, rat, hamster). Shorter peptides have been tested using HMEC-1 endothelial cells for inhibition of […] mediated cell attachment and spreading in comparison to SSTN82-130.
(§1) Cell adhesion and spreading assays were performed with modification to the previous procedures (Lebakken and Rapraeger, 1996. Briefly, human plasma vitronectin or fibronectin at 10-30 μg/ml were applied to nitrocellulose-coated ten well slides (Erie Scientific) and incubated for 1-2 h at 37° C. Slides were blocked with 1.0% heat-denatured bovine serum albumin for a minimum of 30 min at 37° C. Cells were detached from the substratum using 5 mM EDTA in Tris-buffered saline and resuspended in HEPES-buffered culture medium containing 0.1% heat-denatured BSA. Cells were plated at a density of 15,000 cells per well and allowed to attach and spread for 2 h prior to fixation in 4% paraformaldehyde in CMF-PBS. For fluorescence microscopy, fixed cells were permeabilized in 0.2% Triton X-100, labeled with rhodamine-conjugated phalloidin and analyzed using fluorescence microscopy. For testing inhibition by recombinant mScd-1ED and synstatin82-130, cells were pre-incubated 10 min before plating in the presence of the inhibitor. […] LM609 was used as a specific block to αvβ3 and P1F6 was used as a specific blocker of αvβ5.
Finally, the inventors have examined HMEC-1 cells, which are immortalized human dermal microvascular endothelial cells. Microvascular endothelial cells are regarded as being the main source of endothelial cells that carry out angiogenesis in vivo. The HMEC-1 cells grown in serum-containing culture medium express Sdc1 (as noted earlier) and also express active αvβ3 and αvβ5 integrins. […]

[2] = system: MDA-MB-231 human mammary carcinoma cells; conditions: MDA-MB-231, 0.1-1.0 μM SSTN peptide, 2 hr
Experimental: (§2) FIGS. 5A-5F—Inhibition of MDA-MB-231 human mammary carcinoma cell attachment and spreading on VN by synstatin82-130. MDA-MB-231 human mammary carcinoma cells, which rely on the αvβ3 integrin for attachment and spreading on VN, were plated on 10 μg/ml VN for 2 hr in the absence of peptide (FIG. 5A) or in the presence of 0.1 (FIG. 5B), 0.3 (FIG. 5C) or 1 μM (FIG. 5D) synstatin82-130. The cells were fixed and stained as in FIG. 2.
(§3) FIG. 17—Human SSTN peptides inhibit αvβ3-mediated cell attachment and spreading on vitronectin. MDA-MB-231 human mammary carcinoma cells were allowed to attach and spread on either vitronectin (VN) or fibronectin (FN) during a 2 hr assay in the presence of 0, 0.1, 0.3, 0.5, 1.0 or 30 μM SSTN peptide. […] The two peptides tested are derived either from amino acids 88-121 (hSSTN 88-121) or 89-120 (hSSTN 89-120) of the human Sdc1 sequence. Adhesion to VN, but not FN, is mediated by the αvβ3 integrin on these cells and is disrupted by the human SSTN peptides.
as §1
The inventors have tested the adhesion and spreading of MDA-MB-231 mammary carcinoma cells on VN in the presence or absence of synstatin82-130. These cells rely specifically on the active αvβ3 integrin for this adhesion (Beauvais et al., 2004). Recombinant Sdc1 ectodomain (SLED) has been shown by the inventors previously to block spreading of these cells with an IC50 of about 3-10 μM (Beauvais et al., 2004). […] Thus, synstatin82-130 is a specific and effective inhibitor of αvβ3 integrin activation.

[3] = system: MDA-MB-231 human mammary carcinoma cells; experiment: Cell attachment and spreading on fibronectin (control ligand), MDA-MB-231 cells; conditions: MDA-MB-231, 30 μM, 100-fold greater than IC50
Experimental: as §2
as §3, with “peptides. […]” for “peptides.”

Substance | activity in cell attachment and spreading assays on VN [1] | attachment and spreading on VN [2] | attachment and spreading on fibronectin (FN) [3]
SSTN88-121: truncated mouse SSTN peptide, amino acids 88-121 (FTSVLPAGEKPEEGEPVLHVEAEPGFTARDKEKE; UniProt P18828 88-121, looked up, fragment) | active |  | 
hSSTN 88-121: human SSTN, amino acids 88-121 of the human Sdc1 sequence, SEQ ID NO:28 (ASTSTLPAGEGPKEGEAVVLPEVEPGLTAREQEA) |  | disrupted | lack of activity
hSSTN 89-120: human SSTN, amino acids 89-120 of the human Sdc1 sequence, SEQ ID NO:21 (STSTLPAGEGPKEGEAVVLPEVEPGLTAREQE) |  | disrupted | lack of activity

Reference: patent US10864251B2, “Peptides of syndecan-1 for inhibiting angiogenesis” (Wisconsin Alumni Research Foundation, priority 2006, dated 2020)
